Consider one molecule from publication PMC5934630 (2018).

Structures are written as SMILES.

Assay [1] has as its system MA (DNA, aptamer) CTTACGACTCAGGCATTTTGCCGGGTAACGAAGTTACTGTCGTAAG
The assay can be described thus: ITC. The settings on record: Na+ 20 mM, Mg2+ 0.5 mM.

The test system of assay [2] is MA-L (DNA, aptamer) CAGAACTTACGACTCAGGCATTTTGCCGGGTAACGAAGTTACTGTCGTAAG
In words: ITC. The following applies: Na+ 20 mM, Mg2+ 0.5 mM.

On to `CCCC(C(=O)c1ccc2c(c1)OCO2)N1CCCC1` (centres unmarked), for which the equilibrium dissociation constant (KD) in assay [1] came to 6.1 ± 0.2 µM; in assay [2], 6.2 µM.

A word on the KD: it is a measure of binding affinity in units of concentration. The low end stands for a tighter complex, the high end for a looser complex.
